≈ marks a conversion by molar mass, not a printed value.
Assays:
[1] = tested on: C. parapsilopsis (ATCC 22019); test: Anticandidal activity, MIC50 by resazurin fluorometric measurement; type: cell-based, Candida parapsilopsis; settings: Candida, ATCC22019; means of triplicate assays
Procedure: (§1) Obtained compounds (2a–2j) were evaluated for anticandidal activity against Candida albicans (C. albicans) (ATCC 24433), Candida krusei (C. krusei) (ATCC 6258), and Candida parapsilopsis (C. parapsilopsis) (ATCC 22019). MIC50 values were determined via fluorometric measurements, using resazurin solution.[13] Voriconazole and fluconazole were used as a standard drug in the anticandidal activity test. […] In general, it is seen that the 2-methoxyethyl substituent increases the anticandidal activity.
(§2) The antimicrobial activity of obtained derivatives (2a–2j) was screened on six bacterial and three fungal strains according to the standard procedure of CLSI[20] as described in the previous study.[21] The antibacterial activities of the obtained compounds were screened against B. subtilis (ATCC 6051), E. coli (ATCC 25922), E. faecalis (ATCC 2942), P. aeruginosa (ATCC 27853), S. aureus (ATCC 29213), and S. epidermidis (ATCC 12228). The obtained compounds were evaluated for anticandidal activity against C. albicans (ATCC 24433), C. krusei (ATCC 6258), and C. parapsilopsis (ATCC 22019). For antibacterial activity, azithromycin was utilized as a reference drug, whereas voriconazole and fluconazole were used for anticandidal activity.

C. albicans (ATCC 24433) = test: as above; type: cell-based, Candida albicans; settings: Candida albicans, ATCC24433, means of triplicate assays
Procedure: as §1, §2

C. krusei (ATCC 6258) = test: as above; type: cell-based, Candida krusei; settings: Pichia kudriavzevii, ATCC6258, means of triplicate assays
Procedure: as §1, §2

S. aureus (ATCC 29213) = test: Antibacterial activity, MIC50 by resazurin fluorometric measurement; type: cell-based, Staphylococcus aureus; settings: Staphylococcus aureus, ATCC29213, means of triplicate assays
Procedure: (§3) Obtained compounds (2a–2j) were evaluated for antibacterial activity against Escherichia coli (E. coli) (ATCC 25922), Pseudomonas aeruginosa (P. aeruginosa) (ATCC 27853), […] (E. faecalis) (ATCC 2942), Bacillus subtilis (B. subtilis) (ATCC 6051), Staphylococcus aureus (S. aureus) (ATCC 29213), and Staphylococcus epidermidis (S. epidermidis) (ATCC 12228). MIC50 values were determined via fluorometric measurements, using resazurin solution.[13] Azithromycin was used as a standard drug in the antibacterial activity test.
as §2

[2] = tested on: healthy mouse fibroblast cell (NIH3T3); test: MTT cytotoxicity test on healthy cells; type: cell-based; settings: 24-h treatment, means of quartet assays ± SEM
Procedure: (§4) The MTT test was performed using 3 different cell lines for calculated IC50 values of obtained compounds. […] For this purpose, the cytotoxic effects of the compounds against the healthy mouse fibroblast cell (NIH3T3) were investigated.
(§5) The 3-(4,5-dimethylthiazol-2-yl)-2,5-diphenyltetrazolium salt reduction method, or MTT assay, is used to measure the metabolic activity of live cells. […] Doxorubicin is used as a therapeutic drug. MTT assays were carried out as previously explained.[19]

E. faecalis (ATCC 2942) = test: Antibacterial activity, MIC50 by resazurin fluorometric measurement; type: cell-based, Enterococcus faecalis; settings: Enterococcus faecalis, ATCC2942, means of triplicate assays
Procedure: as §3, §2

HepG2 cell line = test: MTT cytotoxicity test; type: cell-based; settings: Homo sapiens, 24-h treatment, means of quartet assays ± SEM
Procedure: as §4, §5

A549 cell line [3] = test: MTT cytotoxicity test; type: cell-based; settings: Homo sapiens, A549, 24 h, MTT, 24-h treatment, means of quartet assays ± SEM
Procedure: as §4, §5

[4] = tested on: P. aeruginosa (ATCC 27853); test: Antibacterial activity, MIC50 by resazurin fluorometric measurement; type: cell-based; settings: Pseudomonas aeruginosa, ATCC27853; means of triplicate assays
Procedure: as §3, §2

B. subtilis (ATCC 6051) = test: as above; type: cell-based; settings: Bacillus subtilis, ATCC6051; means of triplicate assays
Procedure: as §3, §2

E. coli (ATCC 25922) = test: as above; type: cell-based; settings: Escherichia coli, ATCC25922; means of triplicate assays
Procedure: as §3, §2

[5] = tested on: S. epidermidis (ATCC 12228); test: as above; type: cell-based, Staphylococcus epidermidis; settings: Staphylococcus epidermidis, ATCC12228, means of triplicate assays; read-out: MIC50 S. epidermis
Procedure: as §3, §2

carcinogenic cell lines [6] = test: Flow cytometric analysis of apoptosis and necrosis (Apoptosis, Necrosis and Healthy Cell Quantitation Kit Plus); type: cell-based; settings: IC50 concentration, 24-h incubation
Excerpt: The flow cytometer was used to calculate the percentages of apoptotic and necrotic cells in four different quadrants, which are denoted by the letters “UL, UR, LL, LR” (Upper Left, Upper Right, Lower Left, Lower Right). The four distinct quadrants in the diagram represent the following areas, respectively: Apoptotic or early apoptotic cells, LR: CF488A+/(EthD-III)-; necrotic or late apoptotic cells, […]: CF488A+/(EthD-III)+; intact cells, LL: CF488A/(EthD-III); and dead or necrotic cells, UR: CF488A+/(EthD-III)+. The IC50 concentration of each substance was used in administration.
Death pathway of the carcinogenic cell lines was detected by Apoptosis, Necrosis and Healthy Cell Quantitation Kit Plus (Cat: 30066, Biotium, Hayward, CA, USA)[22] as reported in the manufacturer’s instruction. The IC50 values for doxorubicin and compound 2j were applied. Cells were collected by centrifugation at 1200 rpm for 5 min following a 24-h incubation period. It was washed 2 times with PBS, centrifuged and turned into pellets. One ×10^6 cells/mL of annexin were suspended in V-FITC binding buffer. Ethidium iodide ([…]), Hoestch 1 mL, and annexin V-FITC ([…]) were added to stain cells and using the CytoFLEX Flow Cytometer (Beckman Coulter Life Sciences, USA) and CytExpert for CytoFLEX Acquisition and Analysis Software Version 2.2.0.97 instrument. Fluorescence measurements were made using a flow cytometer in accordance with the instrument procedure.

carcinogenic cell lines [7] = test: as above; type: cell-based; settings: IC50 concentration, 24-h incubation; remark: listed apart in the source
A549 cell line [8] = test: Analysis of mitochondrial membrane potential (MMP) by flow cytometry, JC-1 dye; type: cell-based; settings: A549, IC50 concentration, 24-h incubation
Procedure: After a 24-h incubation period, mitochondrial membrane potential was measured with JC-1 dye.
The BD Mitoscreen Mitochondrial Membrane Potential Detection JC-1 Kit (available from ref ([23])) was used for the MMP test. First, A549 cells were seeded in 25 mL flasks and incubated for 24 h in a 5% CO2 incubator. […] At the end of this period, cells were collected and centrifuged in accordance with the kit contents. After the upper part was removed, JC-1 dye was added and incubated at 37 °C for 10–15 min. At the end of the period, it was washed 2 times with washing solution and reading was done with the appropriate procedure using the CytoFLEX Flow Cytometer (Beckman Coulter Life Sciences, USA) and CytExpert for CytoFLEX Acquisition and Analysis Software Version 2.2.0.97.

MIC50 [1] | MIC50 (C. albicans (ATCC 24433)) | MIC50 (C. krusei (ATCC 6258)) | MIC50 (S. aureus (ATCC 29213)) | MIC50 (E. faecalis (ATCC 2942)) | melting point | MIC50 [4] | MIC50 (B. subtilis (ATCC 6051)) | MIC50 (E. coli (ATCC 25922)) | MIC50 [5] | SMILES | IC50 [2] | IC50 (HepG2 cell line) | IC50 (A549 cell line [3]) | early apoptosis (Q1-LR) (carcinogenic cell lines [6]) | intact cells (Q1-LL) (carcinogenic cell lines [6]) | necrosis (Q1-UL) (carcinogenic cell lines [6]) | rate of apoptosis (early + late apoptosis) (carcinogenic cell lines [6]) | late apoptosis (Q1-UR) (carcinogenic cell lines [7]) | mitochondrial membrane potential (P3) (A549 cell line [8])
3.9 µg/mL (≈ 12.7 µM) | 7.81 µg/mL (≈ 25.5 µM) | 7.81 µg/mL (≈ 25.5 µM) |  |  |  |  |  |  |  | OC(Cn1cncn1)(Cn1cncn1)c1ccc(F)cc1F [SD3, Fluconazole, reference compound] |  |  |  |  |  |  |  |  | 
> 100 µg/mL | 15.6 µg/mL (≈ 38.9 µM) | 62.5 µg/mL (≈ 156 µM) | 62.5 µg/mL (≈ 156 µM) | 31.3 µg/mL (≈ 78.1 µM) | 136.2 to 137.8 °C | 62.5 µg/mL (≈ 156 µM) | > 100 µg/mL | > 100 µg/mL | 31.3 µg/mL (≈ 78.1 µM) | COCCN1CCN(c2ccc(C(=O)C=Cc3cccc4ccccc34)cc2)CC1 [2e, 1-(4-(4-(2-Methoxyethyl)piperazin-1-yl)phenyl)-3-(naphthalen-1-yl)prop-2-en-1-one] | 19.8 ± 0.81 µM | 45.5 ± 2.5 µM | 20.6 ± 0.52 µM |  |  |  |  |  | 
 |  |  |  |  |  |  |  |  |  | COc1cccc2c1C(=O)c1c(O)c3c(c(O)c1C2=O)C[C@@](O)(C(=O)CO)C[C@@H]3O[C@H]1C[C@H](N)[C@H](O)[C@H](C)O1 [SD4, Doxorubicin, reference compound] | > 100 µM | 9.47 ± 1.49 µM | 2.97 ± 0.16 µM | 8.55% | 80.85% | 1.76% | 17.4% | 8.84% | 30.270%
 |  |  | < 0.97 µg/mL | < 0.97 µg/mL |  | < 0.97 µg/mL | < 0.97 µg/mL | < 0.97 µg/mL | < 0.97 µg/mL | CC[C@H]1OC(=O)[C@H](C)[C@@H](O[C@H]2C[C@@](C)(OC)[C@@H](O)[C@H](C)O2)[C@H](C)[C@@H](O[C@@H]2O[C@H](C)C[C@H](N(C)C)[C@H]2O)[C@](C)(O)C[C@@H](C)CN(C)[C@H](C)[C@@H](O)[C@]1(C)O [SD1, Azithromycin, reference compound] |  |  |  |  |  |  |  |  | 
> 100 µg/mL | 31.3 µg/mL (≈ 84.5 µM) | > 100 µg/mL | > 100 µg/mL | 31.3 µg/mL (≈ 84.5 µM) | 196.5 to 198 °C | > 100 µg/mL | > 100 µg/mL | > 100 µg/mL | 62.5 µg/mL (≈ 169 µM) | CCN1CCN(c2ccc(C(=O)C=Cc3ccc4ccccc4c3)cc2)CC1 [2g, 1-(4-(4-Ethylpiperazin-1-yl)phenyl)-3-(naphthalen-2-yl)prop-2-en-1-one] | 52.4 ± 2.57 µM | 35.6 ± 0.98 µM | 39.1 ± 1.24 µM |  |  |  |  |  | 
1.95 µg/mL (≈ 5.58 µM) | 3.9 µg/mL (≈ 11.2 µM) | 3.9 µg/mL (≈ 11.2 µM) |  |  |  |  |  |  |  | C[C@@H](c1ncncc1F)[C@](O)(Cn1cncn1)c1ccc(F)cc1F [SD2, Voriconazole, reference compound] |  |  |  |  |  |  |  |  | 
> 100 µg/mL | 31.3 µg/mL (≈ 81.8 µM) | > 100 µg/mL | > 100 µg/mL | 31.3 µg/mL (≈ 81.8 µM) | 186.9 to 188.8 °C | > 100 µg/mL | > 100 µg/mL | > 100 µg/mL | 31.3 µg/mL (≈ 81.8 µM) | C=CCN1CCN(c2ccc(C(=O)C=Cc3ccc4ccccc4c3)cc2)CC1 [2i, 1-(4-(4-Allylpiperazin-1-yl)phenyl)-3-(naphthalen-2-yl)prop-2-en-1-one] | > 100 µM | 97.1 ± 4.94 µM | 21.4 ± 2.56 µM |  |  |  |  |  | 

From publication PMC9947975, “Design, Synthesis, and Biological Evaluation Studies of Novel Naphthalene-Chalcone Hybrids As Antimicrobial, Anticandidal, Anticancer, and VEGFR-2 Inhibitors” (ACS Omega, 2023)
